Assay results reported in ChEMBL document CHEMBL1201862, “PubChem BioAssay data set” (2004).
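Compound exposure: 48 hours, 5 concentrations, 96-well plates. GI50 is the concentration that inhibits growth by half.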 Calls of active or inactive are those of the source. Cut-off read from the data, not from the text of the source: active = GI50 up to about 1.1 µM and inactive = higher.

How the values were obtained:
Assay in all cases: NCI tumour cell line growth inhibition, 48 h
MOLT-4 = tested on: MOLT-4
SNB-19 = tested on: SNB-19
SN12C = tested on: SN12C
RPMI-8226 = tested on: RPMI-8226
OVCAR-3 = tested on: OVCAR-3
HCT-15 = tested on: HCT-15
SK-MEL-28 = tested on: SK-MEL-28
UACC-257 = tested on: UACC-257
BT-549 = tested on: BT-549
TK-10 = tested on: TK-10
SK-MEL-2 = tested on: SK-MEL-2
NCI-H460 = tested on: NCI-H460
Hs-578T = tested on: Hs-578T
KM12 = tested on: KM12
HOP-62 = tested on: HOP-62
K562 = tested on: K562
LOX IMVI = tested on: LOX IMVI
DLD-1 = tested on: DLD-1
DMS-273 = tested on: DMS-273

C/C(=N\NC(=O)c1ccncc1)c1ccc2ccccc2c1O
GI50 (MOLT-4): 0.513 µM (active)
GI50 (SNB-19): 17.5 µM (inactive)
GI50 (SN12C): 1.62 µM (inactive)
GI50 (RPMI-8226): 4.33 µM (inactive)
GI50 (OVCAR-3): 0.29 µM (active)
GI50 (HCT-15): 0.419 µM
GI50 (SK-MEL-28): 17.2 µM (inactive)
GI50 (UACC-257): 2.71 µM (inactive)
GI50 (BT-549): 10.8 µM (inactive)
GI50 (TK-10): 4.63 µM (inactive)
GI50 (SK-MEL-2): 7.69 µM (inactive)
GI50 (NCI-H460): 0.356 µM (active)
GI50 (Hs-578T): 16.8 µM (inactive)
GI50 (KM12): 2.31 µM (inactive)
GI50 (HOP-62): 4.37 µM (inactive)
GI50 (K562): 1.84 µM (inactive)
GI50 (LOX IMVI): 1.04 µM (active)

COc1cc2c(cc1OC)C(=O)/C(=C/c1ccc(N(C)C)cc1)CC2
GI50 (MOLT-4): > 10 µM (inactive)
GI50 (SNB-19): > 10 µM (inactive)
GI50 (SN12C): > 10 µM (inactive)
GI50 (RPMI-8226): > 10 µM (inactive)
GI50 (OVCAR-3): > 10 µM (inactive)
GI50 (HCT-15): > 10 µM
GI50 (SK-MEL-28): > 10 µM (inactive)
GI50 (UACC-257): 3.38 µM (inactive)
GI50 (BT-549): > 10 µM (inactive)
GI50 (TK-10): > 10 µM (inactive)
GI50 (SK-MEL-2): 0.962 µM (active)
GI50 (NCI-H460): > 10 µM (inactive)
GI50 (Hs-578T): > 10 µM (inactive)
GI50 (KM12): > 10 µM (inactive)
GI50 (HOP-62): > 10 µM (inactive)
GI50 (K562): > 10 µM (inactive)
GI50 (LOX IMVI): > 10 µM (inactive)

COc1ccc(N2C(=O)C3c4[nH]c5c(C)cccc5c4C4CCC(C(C)C)CC4C3C2=O)cc1 (stereo unspecified)
GI50 (MOLT-4): 2.12 µM (inactive)
GI50 (SNB-19): 22.1 µM (inactive)
GI50 (SN12C): 8.3 µM (inactive)
GI50 (RPMI-8226): 1.88 µM (inactive)
GI50 (OVCAR-3): 13.9 µM (inactive)
GI50 (HCT-15): 10 µM
GI50 (SK-MEL-28): 13 µM (inactive)
GI50 (UACC-257): 31 µM (inactive)
GI50 (BT-549): 28.6 µM (inactive)
GI50 (TK-10): 24.4 µM (inactive)
GI50 (SK-MEL-2): 16.7 µM (inactive)
GI50 (NCI-H460): 7.94 µM (inactive)
GI50 (Hs-578T): 8.09 µM (inactive)
GI50 (KM12): 6.75 µM (inactive)
GI50 (HOP-62): 10 µM (inactive)
GI50 (K562): 2.01 µM (inactive)
GI50 (LOX IMVI): 3.59 µM (inactive)

CC(=O)NC1CC2Oc3ccc(C)cc3C(C)(O2)C1O (stereo unspecified)
GI50 (MOLT-4): > 100 µM (inactive)
GI50 (DLD-1): > 100 µM (inactive)
GI50 (SNB-19): > 100 µM (inactive)
GI50 (SN12C): > 100 µM (inactive)
GI50 (RPMI-8226): > 100 µM (inactive)
GI50 (OVCAR-3): > 100 µM (inactive)
GI50 (HCT-15): > 100 µM
GI50 (SK-MEL-28): > 100 µM (inactive)
GI50 (UACC-257): > 100 µM (inactive)
GI50 (TK-10): > 100 µM (inactive)
GI50 (SK-MEL-2): > 100 µM (inactive)
GI50 (NCI-H460): > 100 µM (inactive)
GI50 (KM12): > 100 µM (inactive)
GI50 (HOP-62): > 100 µM (inactive)
GI50 (K562): > 100 µM (inactive)
GI50 (DMS-273): > 100 µM (inactive)
GI50 (LOX IMVI): > 100 µM (inactive)

N=C1/C(=C/c2ccc(F)cc2)C(=O)N=C2SC=NN12
GI50 (MOLT-4): > 100 µM (inactive)
GI50 (SNB-19): > 100 µM (inactive)
GI50 (SN12C): > 100 µM (inactive)
GI50 (RPMI-8226): > 100 µM (inactive)
GI50 (OVCAR-3): > 100 µM (inactive)
GI50 (HCT-15): > 100 µM
GI50 (SK-MEL-28): > 100 µM (inactive)
GI50 (UACC-257): > 100 µM (inactive)
GI50 (BT-549): 94.6 µM (inactive)
GI50 (TK-10): > 100 µM (inactive)
GI50 (SK-MEL-2): > 100 µM (inactive)
GI50 (NCI-H460): > 100 µM (inactive)
GI50 (Hs-578T): > 100 µM (inactive)
GI50 (KM12): > 100 µM (inactive)
GI50 (HOP-62): > 100 µM (inactive)
GI50 (K562): > 100 µM (inactive)
GI50 (LOX IMVI): 12.9 µM (inactive)

CC(C)OP(=O)(OC(C)C)c1nc(-c2ccccc2)n(-c2ccc([N+](=O)[O-])cc2)n1
GI50 (MOLT-4): > 100 µM (inactive)
GI50 (DLD-1): > 100 µM (inactive)
GI50 (SNB-19): > 100 µM (inactive)
GI50 (SN12C): > 100 µM (inactive)
GI50 (RPMI-8226): > 100 µM (inactive)
GI50 (OVCAR-3): > 100 µM (inactive)
GI50 (HCT-15): > 100 µM
GI50 (SK-MEL-28): > 100 µM (inactive)
GI50 (UACC-257): > 100 µM (inactive)
GI50 (TK-10): > 100 µM (inactive)
GI50 (SK-MEL-2): 50.8 µM (inactive)
GI50 (NCI-H460): > 100 µM (inactive)
GI50 (KM12): > 100 µM (inactive)
GI50 (HOP-62): > 100 µM (inactive)
GI50 (K562): 85.5 µM (inactive)
GI50 (DMS-273): > 100 µM (inactive)

CCN1CCC(O)(c2ccc(Oc3ccc(C)cc3)cc2)C(C(=O)c2ccc(Oc3ccc(C)cc3)cc2)C1 (stereo unspecified)
GI50 (MOLT-4): 10.3 µM (inactive)
GI50 (SNB-19): 14.2 µM (inactive)
GI50 (SN12C): 14.8 µM (inactive)
GI50 (RPMI-8226): 1.48 µM (inactive)
GI50 (OVCAR-3): 16 µM (inactive)
GI50 (HCT-15): 4.01 µM
GI50 (SK-MEL-28): 11.2 µM (inactive)
GI50 (UACC-257): 13.2 µM (inactive)
GI50 (BT-549): 10.6 µM (inactive)
GI50 (TK-10): 8.61 µM (inactive)
GI50 (SK-MEL-2): 18 µM (inactive)
GI50 (NCI-H460): 3.28 µM (inactive)
GI50 (Hs-578T): 17.8 µM (inactive)
GI50 (KM12): 6.37 µM (inactive)
GI50 (HOP-62): 15.2 µM (inactive)
GI50 (K562): 2.95 µM (inactive)
GI50 (LOX IMVI): 3.69 µM (inactive)

C=CCSc1nnc2cc(CN3CCCC3)c(-c3ccc(Cl)cc3)nn12
GI50 (MOLT-4): 26 µM (inactive)
GI50 (SNB-19): 24.6 µM (inactive)
GI50 (SN12C): 16.8 µM (inactive)
GI50 (RPMI-8226): 39.1 µM (inactive)
GI50 (OVCAR-3): 17.1 µM (inactive)
GI50 (HCT-15): 21.3 µM
GI50 (SK-MEL-28): 20 µM (inactive)
GI50 (UACC-257): 17.5 µM (inactive)
GI50 (BT-549): 20.7 µM (inactive)
GI50 (TK-10): 20.7 µM (inactive)
GI50 (SK-MEL-2): 19.2 µM (inactive)
GI50 (NCI-H460): 17.9 µM (inactive)
GI50 (Hs-578T): 40.6 µM (inactive)
GI50 (KM12): 24.8 µM (inactive)
GI50 (HOP-62): 20.7 µM (inactive)
GI50 (K562): 34.7 µM (inactive)
GI50 (LOX IMVI): 20.4 µM (inactive)

COc1ccc(-c2c(-c3ccccc3)c(C)nc3[nH]c(=S)[nH]c(=S)c23)cc1OC
GI50 (MOLT-4): 12 µM (inactive)
GI50 (SNB-19): 60.3 µM (inactive)
GI50 (SN12C): 21.6 µM (inactive)
GI50 (RPMI-8226): 21.6 µM (inactive)
GI50 (OVCAR-3): 20.3 µM (inactive)
GI50 (HCT-15): 30.9 µM
GI50 (SK-MEL-28): 22.1 µM (inactive)
GI50 (UACC-257): 36.6 µM (inactive)
GI50 (BT-549): 42.2 µM (inactive)
GI50 (TK-10): 45.7 µM (inactive)
GI50 (SK-MEL-2): 20.4 µM (inactive)
GI50 (NCI-H460): 24.3 µM (inactive)
GI50 (Hs-578T): 35.6 µM (inactive)
GI50 (KM12): 18.5 µM (inactive)
GI50 (HOP-62): 33.1 µM (inactive)
GI50 (K562): 31.2 µM (inactive)
GI50 (LOX IMVI): 28.2 µM (inactive)

Cc1cccc(C)c1NC(=O)CCC(=O)NNC(=O)c1cc(O)c2ccccc2c1
GI50 (MOLT-4): 19.5 µM (inactive)
GI50 (DLD-1): 34.9 µM (inactive)
GI50 (SNB-19): 23.9 µM (inactive)
GI50 (SN12C): 78.7 µM (inactive)
GI50 (RPMI-8226): 56.8 µM (inactive)
GI50 (OVCAR-3): 24.8 µM (inactive)
GI50 (HCT-15): 25.3 µM
GI50 (SK-MEL-28): 44.8 µM (inactive)
GI50 (UACC-257): 44.5 µM (inactive)
GI50 (TK-10): 70.1 µM (inactive)
GI50 (NCI-H460): 27.6 µM (inactive)
GI50 (KM12): 99.1 µM (inactive)
GI50 (HOP-62): 37.9 µM (inactive)
GI50 (K562): 23 µM (inactive)
GI50 (LOX IMVI): 25.1 µM (inactive)

O=C1/C(=c2\c3ccccc3n3c(=O)c4ccccc4nc23)Nc2ccccc21 [CANDIDINE]
GI50 (MOLT-4): > 31.6 µM (inactive)
GI50 (SNB-19): > 100 µM (inactive)
GI50 (SN12C): > 100 µM (inactive)
GI50 (RPMI-8226): > 100 µM (inactive)
GI50 (OVCAR-3): 45.9 µM (inactive)
GI50 (HCT-15): > 100 µM
GI50 (SK-MEL-28): > 100 µM (inactive)
GI50 (UACC-257): > 86.7 µM (inactive)
GI50 (BT-549): > 100 µM (inactive)
GI50 (TK-10): > 100 µM (inactive)
GI50 (SK-MEL-2): > 100 µM (inactive)
GI50 (NCI-H460): 43.5 µM (inactive)
GI50 (Hs-578T): 29.9 µM (inactive)
GI50 (KM12): > 59.7 µM (inactive)
GI50 (HOP-62): > 70.5 µM (inactive)
GI50 (K562): > 84.5 µM (inactive)
GI50 (LOX IMVI): > 72.8 µM (inactive)

C/C1=C\C=C(\C(C)C)CC/C(C(=O)O)=C\CC/C(C)=C/CC1 [NEOCROTOCEMBRANEIC ACID]
GI50 (MOLT-4): 19.1 µM (inactive)
GI50 (SNB-19): 24.9 µM (inactive)
GI50 (SN12C): 21.2 µM (inactive)
GI50 (RPMI-8226): 19.3 µM (inactive)
GI50 (OVCAR-3): 16.6 µM (inactive)
GI50 (HCT-15): 21.4 µM
GI50 (SK-MEL-28): 24.6 µM (inactive)
GI50 (UACC-257): 22.5 µM (inactive)
GI50 (BT-549): 27.5 µM (inactive)
GI50 (TK-10): 31.8 µM (inactive)
GI50 (SK-MEL-2): 18.1 µM (inactive)
GI50 (NCI-H460): 17.7 µM (inactive)
GI50 (Hs-578T): 43.6 µM (inactive)
GI50 (KM12): 20.6 µM (inactive)
GI50 (HOP-62): 22.8 µM (inactive)
GI50 (K562): 26.1 µM (inactive)
GI50 (LOX IMVI): 20.5 µM (inactive)
